Earlier results on one molecule are cited in patent US9717692B2, “Effervescent formulations comprising dexketoprofen” (priority 2011, dated 2017).

Structures are written as SMILES.

The conditions of this data set: Sunshine et al., WO89/046558.

Take `C[C@H](C(=O)O)c1cccc(C(=O)c2ccccc2)c1` [Dexketoprofen, (+)-(S)-2-(3-Benzoylphenyl) propionic acid]: the “effect compared with racemic ketoprofen of the same amount” value was “quicker and stronger effect”.
